The values below come from patent US6080772A, “Thiazole compounds and methods of modulating signal transduction” (Sugen, Inc., priority 1997, dated 2000).

pEC50: −log10 of the molar value. Where two headings read alike, the source gives them in different places.

One assay concerns primary adipocytes. Kind of assay: Primary adipocyte glucose uptake assay (14C glucose). The conditions noted are these: test compound 50 mM without insulin, compared to samples containing only insulin (final concentration=100 μm).
Another assay has as its system insulin receptor (IR). Nature of the assay: Phosphotyrosine enzyme linked immunosorbent assay: pTyr on insulin receptor in NIH3T3 cells over-expressing human IR (H25 cells). The conditions noted are these: for pEC50: read-out: ACTIVITY EC50; for ACTIVITY (compared to control) / CONC.: Table I; for CONC.: concentration of the compound which produces the percentage increase in phosphotyrosine over the vanadate control, 90 min incubation, no insulin.

`O=[N+]([O-])c1cnc(Sc2ncc(C(F)(F)F)cn2)s1` [Compound 83, 2-[(5-Nitrothiazol-2-yl)mercapto]-5-(trifluoromethyl)pyrimidine]: the “response in the primary adipocyte glucose uptake assay compared with the insulin control” value (shortened to “response … compared with the insulin control”) with primary adipocytes is “did not give a response greater than or equal to the insulin control”. In addition, the pEC50 (commonly the EC50 on a negative log10 scale, so that one unit is a factor of ten) with insulin receptor (IR) (Table II, […], no lot stated) is 5.06.
As to `O=[N+]([O-])c1cnc(Sc2nnc(O)n2-c2ccccc2)s1` [Compound 5, 3-hydroxy-5-[(5-nitrothiazol-2-yl)mercapto]-4-phenyl-1,2,4-triazole], in the assay with primary adipocytes, the “response … compared with the insulin control” value is reported as “did not give a response greater than or equal to the insulin control”. The “ACTIVITY (compared to control)” value with insulin receptor (IR) ([…]) was 30%. Further, the CONC. with insulin receptor (IR) came to 13 µM. Besides, the pEC50 in the assay on insulin receptor (IR) (Table II, […], no lot stated) is 4.70 to 4.89.
For `O=[N+]([O-])c1cnc(Sc2nc(-c3ccc(Cl)cc3)n[nH]2)s1` [Compound 4, 3-(4-chlorophenyl)-5-[(5-nitrothiazol-2-yl)mercapto]-1,2,4-triazole] the same measures were “did not give a response greater than or equal to the insulin control”, 30%, 100 µM and 4.31 to 4.82.
As for `O=[N+]([O-])c1cnc(Sc2nc3cnccc3[nH]2)s1` [Compound 101], the “response … compared with the insulin control” value in the assay with primary adipocytes was “did not give a response greater than or equal to the insulin control”. In the assay with insulin receptor (IR) (Table II, […], no lot stated), the negative logarithm of the EC50 (pEC50) was 4.82 to 5.15.
Consider `CCCCCn1c(O)nnc1Sc1ncc([N+](=O)[O-])s1` [Compound 100], for which the “response … compared with the insulin control” value with primary adipocytes is reported as “did not give a response greater than or equal to the insulin control”. Further, the “one point determination, effect on PTYR” value with insulin receptor (IR) (Table II, at 100 μm) is “no effect”.
In the case of `CC(C)n1c(Sc2ncc([N+](=O)[O-])s2)nc2cc(C(F)(F)F)ccc21` [Compound 95, 1-Isopropyl-2-[(5-nitrothiazol-2-yl)mercapto]-5-(trifluoromethyl)benzimidazole], the “response … compared with the insulin control” value in the assay on primary adipocytes is reported as “did not give a response greater than or equal to the insulin control”. Besides, the pEC50 with insulin receptor (IR) (Table II, […], no lot stated) is less than 4.00.
Take `O=[N+]([O-])c1cnc(Sc2nc3ccccc3[nH]2)s1` [Compound 79, 2-[(5-Nitrothiazol-2-yl)mercapto]benzimidazole]: the “response … compared with the insulin control” value in the assay on primary adipocytes is “did not give a response greater than or equal to the insulin control”. In addition, the negative logarithm of the EC50 (pEC50) in the assay with insulin receptor (IR) (Table III, […]) was 4.64.
In the case of `CCn1nc(C)cc1-c1nnc(Sc2ncc([N+](=O)[O-])s2)n1CCCOC` [Compound 9, 3-(1-ethyl-3-methylpyrazol-5-yl)-4-(3-methoxy-n-propyl)-5-[5-(nitrothiazol-2-yl)mercapto]-1,2,4-triazole], the “response … compared with the insulin control” value with primary adipocytes is on record as “did not give a response greater than or equal to the insulin control”. Besides, the “ACTIVITY (compared to control)” value in the assay on insulin receptor (IR) ([…]) was determined as 50%. For the same compound, the CONC. in the assay with insulin receptor (IR) came to 3.9 µM. In addition, the pEC50 in the assay on insulin receptor (IR) (Table II, LOT 2) was 5.22; in the assay on insulin receptor (IR) (Table II, LOT3), 4.80.
Consider `O=[N+]([O-])c1cnc(Sc2n[nH]c(-c3ccccc3)n2)s1` [Compound 1, 3-[(5-nitrothiazol-2-yl)mercapto]-5-phenyl-1,2,4-triazole], for which the “response … compared with the insulin control” value with primary adipocytes is on record as “did not give a response greater than or equal to the insulin control”. In addition, in the assay on insulin receptor (IR) ([…]), the “ACTIVITY (compared to control)” value is 30%. Moreover, the CONC. in the assay with insulin receptor (IR) is 53 µM. For the same compound, in the assay on insulin receptor (IR) (Table II, […], no lot stated), the pEC50 was 4.77.
As to `CC(C)n1c(Sc2ncc([N+](=O)[O-])s2)nc2ccccc21` [Compound 94, 1-Isopropyl-2-[(5-nitrothiazol-2-yl)mercapto]benzimidazole], in the assay on primary adipocytes, the “response … compared with the insulin control” value is reported as “did not give a response greater than or equal to the insulin control”. Moreover, in the assay with insulin receptor (IR) (Table II, […], no lot stated), the pEC50 was less than 4.00.
For the compound “2-[(5-nitrothiazol-2-yl)mercapto]-3-cyano-5-acetoxy-6-dimethoxymethyl-pyridine [Compound 97]”, the “response … compared with the insulin control” value in the assay on primary adipocytes is listed as “did not give a response greater than or equal to the insulin control”. Further, in the assay with insulin receptor (IR) (kinetic experiments, range of concentrations, period of 90 minutes), the “level of pTyr on insulin receptor over time (FIG. 1)” value is on record as “progressively raised the level of pTyr on insulin receptor”. Moreover, in the assay on insulin receptor (IR), the pEC50 is 4.47.
On to `O=[N+]([O-])c1cnc(Sc2nnc(O)n2C2CCCCC2)s1` [Compound 6, 4-Cyclohexyl-3-hydroxy-5-[(5-nitrothiazol-2-yl)mercapto]-1,2,4-triazole], for which the “response … compared with the insulin control” value in the assay on primary adipocytes is reported as “did not give a response greater than or equal to the insulin control”. Moreover, in the assay on insulin receptor (IR) ([…]), the “ACTIVITY (compared to control)” value turned out to be 30%. In addition, the CONC. with insulin receptor (IR) came to 100 µM. In addition, in the assay with insulin receptor (IR) (Table II, at 100 μM), the “increase (PTYR)” value came to 50%.
On to `CC(C)(C)c1nc(Sc2ncc([N+](=O)[O-])s2)n[nH]1` [Compound 2, 2-[(5-nitro-thiazol-2-yl)mercapto]-5-t-butyl-1,2,4-triazole], for which, in the assay with primary adipocytes, the “response … compared with the insulin control” value was “did not give a response greater than or equal to the insulin control”. In the assay on insulin receptor (IR), the CONC. turned out to be 4.1 µM. Further, in the assay on insulin receptor (IR) (Table II, […], no lot stated), the negative-log EC50 (pEC50) was 4.70 to 4.80.
